Publication PMC3690672 (European journal of nuclear medicine and molecular imaging, 2009)
Values joined by “and” are separate entries in the source; they are usually repeats but may differ in a detail not shown here. Identical values can stand only once. Like-named read-outs stand apart in the source and are kept apart here.

Experiments:
[1] = molecular target: T1, P-glycoprotein (P-gp) at the blood-brain barrier (Rattus norvegicus, UniProt Q6PSM0); settings: for Mean DV increase (of baseline DV): 3 mg/kg tariquidar; for DV (Logan) of VPM / DV of VPM (2T4K model) / K1 of VPM (2T4K model) / k2 of VPM (2T4K model) / k3 of VPM (2T4K model) / k4 of VPM (2T4K model): after 3 mg/kg tariquidar (scan 2, 120 min after), mean±SD, n=6
T1 sequence (Q6PSM0 1-1272): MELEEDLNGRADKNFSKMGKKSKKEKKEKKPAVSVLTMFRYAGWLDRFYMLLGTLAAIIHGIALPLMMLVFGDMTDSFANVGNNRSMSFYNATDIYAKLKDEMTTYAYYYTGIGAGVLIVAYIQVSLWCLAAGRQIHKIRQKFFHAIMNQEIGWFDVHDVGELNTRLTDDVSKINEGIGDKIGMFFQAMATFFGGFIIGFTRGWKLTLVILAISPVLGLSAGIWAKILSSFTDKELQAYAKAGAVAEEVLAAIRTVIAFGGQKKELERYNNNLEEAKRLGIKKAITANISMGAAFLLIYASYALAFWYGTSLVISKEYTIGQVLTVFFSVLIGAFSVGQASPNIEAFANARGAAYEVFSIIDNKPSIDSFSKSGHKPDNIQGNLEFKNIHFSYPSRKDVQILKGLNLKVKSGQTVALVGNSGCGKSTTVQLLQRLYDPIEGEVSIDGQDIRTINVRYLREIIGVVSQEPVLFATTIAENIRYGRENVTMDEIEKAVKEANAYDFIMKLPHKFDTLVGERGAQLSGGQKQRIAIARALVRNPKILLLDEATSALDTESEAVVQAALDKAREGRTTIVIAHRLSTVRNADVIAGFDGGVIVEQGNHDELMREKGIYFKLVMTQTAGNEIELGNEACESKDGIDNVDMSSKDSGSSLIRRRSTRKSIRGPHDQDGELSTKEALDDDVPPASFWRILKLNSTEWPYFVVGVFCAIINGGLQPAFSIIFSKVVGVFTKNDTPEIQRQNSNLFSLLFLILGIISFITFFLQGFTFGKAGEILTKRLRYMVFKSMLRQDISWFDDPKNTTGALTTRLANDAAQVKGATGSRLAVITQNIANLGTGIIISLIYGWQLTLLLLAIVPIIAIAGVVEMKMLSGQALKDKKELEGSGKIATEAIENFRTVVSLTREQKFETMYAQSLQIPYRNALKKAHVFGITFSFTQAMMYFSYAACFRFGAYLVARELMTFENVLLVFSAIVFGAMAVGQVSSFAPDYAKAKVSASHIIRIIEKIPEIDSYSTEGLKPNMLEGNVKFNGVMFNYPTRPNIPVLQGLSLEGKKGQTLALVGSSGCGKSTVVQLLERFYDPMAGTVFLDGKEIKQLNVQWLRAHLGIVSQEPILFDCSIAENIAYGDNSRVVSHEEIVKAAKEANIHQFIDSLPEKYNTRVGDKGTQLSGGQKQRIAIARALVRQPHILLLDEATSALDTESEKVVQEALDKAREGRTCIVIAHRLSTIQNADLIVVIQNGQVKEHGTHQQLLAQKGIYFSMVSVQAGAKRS

[2] = molecular target: T1, P-glycoprotein (P-gp) at the blood-brain barrier; test: in vivo
[3] = system: P-glycoprotein (P-gp) at the blood-brain barrier; type: in vivo, rat
[4] = system: P-gp at the blood-brain barrier; settings: humans, 2 mg/kg, plasma 490±203 ng/ml; cited from earlier work
[5] = humans, 2 mg/kg; cited from earlier work
[6] = Tariquidar or elacridar concentrations in plasma and brain by LC/MS; type: in vivo; settings: rat; for concentration at 210 min / concentration at 180 min: intravenous
[7] = molecular target: T1, P-glycoprotein (P-gp) at the blood-brain barrier; settings: for DV (Logan) of VPM / DV of VPM (2T4K model) / K1 of VPM (2T4K model) / k2 of VPM (2T4K model) / k3 of VPM (2T4K model) / k4 of VPM (2T4K model): whole brain, PET 120 min after, mean±SD
[8] = system: multidrug resistance-associated proteins (MRPs), such as MRP1; settings: cited from earlier work
[9] = system: P-gp at the blood-brain barrier; settings: 15 mg/kg, rats; cited from earlier work
[10] = Hill fit of whole-brain DV vs inhibitor dose

With `COc1cc2c(cc1OC)CN(CCc1ccc(NC(=O)c3cc(OC)c(OC)cc3NC(=O)c3cnc4ccccc4c3)cc1)CC2` [tariquidar, Tariquidar dimesylate] the “Mean DV increase (of baseline DV)” value ([1]; cerebellum) was 2.8±0.7, the “DV (Logan) of VPM” value ([1]; cerebellum) was 6.07±0.52 (0.9) ml·ml^−1 and the “DV of VPM (2T4K model)” value ([1]; cerebellum) was 6.14 ml·ml^−1 and 6.14±0.54 (2.9) ml·ml^−1. For the same compound, the “K1 of VPM (2T4K model)” value ([1]; cerebellum) was 0.73±0.14 (11.7) ml·ml^−1·min^−1, the “k2 of VPM (2T4K model)” value ([1]; cerebellum) was 0.32±0.13 (46.6) min^−1 and the “k3 of VPM (2T4K model)” value ([1]; cerebellum) was 0.30±0.08 (75.2) min^−1. The “k4 of VPM (2T4K model)” value ([1]; cerebellum) was 0.20±0.05 (26.4) min^−1, the “Mean DV increase (of baseline DV)” value ([1]; corpus striatum) was 5.9±1.1 and the “DV (Logan) of VPM” value ([1]; corpus striatum) was 8.70±1.05 (0.6) ml·ml^−1. The “DV of VPM (2T4K model)” value ([1]; corpus striatum) was 8.89±1.08 (2.7) ml·ml^−1, the “K1 of VPM (2T4K model)” value ([1]; corpus striatum) was 0.79±0.13 (10.5) ml·ml^−1·min^−1 and the “k2 of VPM (2T4K model)” value ([1]; corpus striatum) was 0.28±0.08 (46.6) min^−1. The “k3 of VPM (2T4K model)” value ([1]; corpus striatum) was 0.47±0.22 (53.4) min^−1, the “k4 of VPM (2T4K model)” value ([1]; corpus striatum) was 0.22±0.06 (23.1) min^−1 and the “Mean DV increase (of baseline DV)” value ([1]; entorhinal cortex) was 3.0±1.4. The “DV (Logan) of VPM” value ([1]; entorhinal cortex) was 6.09±1.37 (1.1) ml·ml^−1, the “DV of VPM (2T4K model)” value ([1]; entorhinal cortex) was 6.20±1.40 (3.4) ml·ml^−1 and the “K1 of VPM (2T4K model)” value ([1]; entorhinal cortex) was 0.64±0.17 (12.9) ml·ml^−1·min^−1. The “k2 of VPM (2T4K model)” value ([1]; entorhinal cortex) was 0.37±0.14 (57.5) min^−1, the “k3 of VPM (2T4K model)” value ([1]; entorhinal cortex) was 0.34±0.10 (68.9) min^−1 and the “k4 of VPM (2T4K model)” value ([1]; entorhinal cortex) was 0.15±0.05 (22.5) min^−1. The “Mean DV increase (of baseline DV)” value ([1]; frontal motor cortex) was 3.1±1.1, the “DV (Logan) of VPM” value ([1]; frontal motor cortex) was 7.14±0.80 (0.9) ml·ml^−1 and the “DV of VPM (2T4K model)” value ([1]; frontal motor cortex) was 7.33±0.82 (1.7) ml·ml^−1. For the same compound, the “K1 of VPM (2T4K model)” value ([1]; frontal motor cortex) was 0.63±0.08 (9.5) ml·ml^−1·min^−1, the “k2 of VPM (2T4K model)” value ([1]; frontal motor cortex) was 0.24±0.05 (49.6) min^−1 and the “k3 of VPM (2T4K model)” value ([1]; frontal motor cortex) was 0.32±0.09 (68.7) min^−1. For the same compound, the “k4 of VPM (2T4K model)” value ([1]; frontal motor cortex) was 0.19±0.06 (23.8) min^−1, the “Mean DV increase (of baseline DV)” value ([1]; hippocampus) was 6.4±0.9 and the “DV (Logan) of VPM” value ([1]; hippocampus) was 8.01±0.88 (0.9) ml·ml^−1. For the same compound, the “DV of VPM (2T4K model)” value ([1]; hippocampus) was 8.17±0.91 (2.2) ml·ml^−1, the “K1 of VPM (2T4K model)” value ([1]; hippocampus) was 0.75±0.11 (11.1) ml·ml^−1·min^−1 and the “k2 of VPM (2T4K model)” value ([1]; hippocampus) was 0.32±0.08 (57.9) min^−1. For the same compound, the “k3 of VPM (2T4K model)” value ([1]; hippocampus) was 0.43±0.09 (69.4) min^−1, the “k4 of VPM (2T4K model)” value ([1]; hippocampus) was 0.18±0.05 (23.8) min^−1 and the “Mean DV increase (of baseline DV)” value ([1]; thalamus) was 7.1±1.1. The “DV (Logan) of VPM” value ([1]; thalamus) was 9.45±1.03 (0.6) ml·ml^−1, the “DV of VPM (2T4K model)” value ([1]; thalamus) was 9.64 ml·ml^−1 and 9.64±1.06 (2.0) ml·ml^−1 and the “K1 of VPM (2T4K model)” value ([1]; thalamus) was 0.93±0.12 (9.0) ml·ml^−1·min^−1. For the same compound, the “k2 of VPM (2T4K model)” value ([1]; thalamus) was 0.33±0.18 (48.8) min^−1, the “k3 of VPM (2T4K model)” value ([1]; thalamus) was 0.47±0.11 (64.4) min^−1 and the “k4 of VPM (2T4K model)” value ([1]; thalamus) was 0.23±0.06 (23.6) min^−1. The EC50 at 180 min [2] was 0.545 ± 0.0299 µg/mL, the ED50 at 120 min ([2]; Sprague-Dawley, iv) was 3 ± 0.2 mg/kg and the “Reversibility of the effect on brain TACs” value ([3]; 15 mg/kg, decline of TACs after peak uptake) was “at least partially reversible”. The “Time of peak VPM brain uptake (maximum effect) after inhibitor injection” value ([3]; tariquidar 15 mg/kg or elacridar 5 mg/kg at 60 min after radiotracer injection) was 30 ± 5 min and 30 min, the “Increase of brain DVs of VPM” value [4] was 1.24 fold and the “Plasma concentration at the time of the PET scan” value [5] was 490 ± 203 ng/mL. For the same compound, the concentration at 210 min ([6]; brain, 3 mg/kg) was 457 ± 37 ng/mL, the concentration at 180 min ([6]; brain, 15 mg/kg) was 6450 ± 3600 ng/mL and the Kp at […] ([6]; brain, iv, 3 mg/kg) was 1 ± 0.3. For the same compound, the Kp at 3 h ([6]; brain, iv, 15 mg/kg) was 1.7 ± 0.9, the concentration at 210 min ([6]; plasma, 3 mg/kg) was 503 ± 139 ng/mL and the concentration at 180 min ([6]; plasma, 15 mg/kg) was 4000 ± 390 ng/mL. For the same compound, the “DVmax (maximum effect)” value [7, 10] was 11.9±0.5 ml·ml^−1, the Hill factor n [7, 10] was 3.0±0.6 and the “Dose leading to complete inhibition of P-gp” value ([7]; according to dose-response assessment (Fig. 2)) was “above 6 mg/kg”. The “Maximum increase in VPM brain distribution (DV) over baseline” value ([7]; at maximum effective doses, rat brain) was “up to 11 fold”, the “Whole-brain DV increase (factor) as compared to baseline scans” value (“Whole-brain DV increase (factor)” below) ([7]; inhibitor 3.75 mg/kg) was 7.0±1.1 and the “Whole-brain DV increase (factor)” value ([7]; inhibitor 7.5 mg/kg) was 10.1±0.8. The “Whole-brain DV increase (factor)” value ([7]; inhibitor 15 mg/kg) was 9.9±1.8, the “Whole-brain DV increase (factor)” value ([7]; inhibitor 30 mg/kg) was 10.2±0.3 and the “Increase of brain DVs at the half-maximum effect plasma concentration” value ([7]; rat, in vivo) was “approximately 4 fold”. The “DV (Logan) of VPM” value ([7]; inhibitor 3.75 mg/kg i.v.) was 8.80±1.06 (0.9) ml·ml^−1, the “DV of VPM (2T4K model)” value ([7]; inhibitor 3.75 mg/kg i.v.) was 8.92±1.11 (2.3) ml·ml^−1 and the “K1 of VPM (2T4K model)” value ([7]; inhibitor 3.75 mg/kg i.v.) was 0.81±0.16 (13.9) ml·ml^−1·min^−1. The “k2 of VPM (2T4K model)” value ([7]; inhibitor 3.75 mg/kg i.v.) was 0.18±0.05 (50.3) min^−1, the “k3 of VPM (2T4K model)” value ([7]; inhibitor 3.75 mg/kg i.v.) was 0.20±0.02 (101.3) min^−1 and the “k4 of VPM (2T4K model)” value ([7]; inhibitor 3.75 mg/kg i.v.) was 0.22±0.07 (51.4) min^−1. For the same compound, the “DV (Logan) of VPM” value ([7]; inhibitor 7.5 mg/kg i.v.) was 12.66±0.77 (0.9) ml·ml^−1, the “DV of VPM (2T4K model)” value ([7]; inhibitor 7.5 mg/kg i.v.) was 12.93±0.79 (1.7) ml·ml^−1 and the “K1 of VPM (2T4K model)” value ([7]; inhibitor 7.5 mg/kg i.v.) was 1.27±0.24 (17.4) ml·ml^−1·min^−1. The “k2 of VPM (2T4K model)” value ([7]; inhibitor 7.5 mg/kg i.v.) was 0.31±0.12 (82.5) min^−1, the “k3 of VPM (2T4K model)” value ([7]; inhibitor 7.5 mg/kg i.v.) was 0.37±0.10 (97.3) min^−1 and the “k4 of VPM (2T4K model)” value ([7]; inhibitor 7.5 mg/kg i.v.) was 0.18±0.01 (23.9) min^−1. The “DV (Logan) of VPM” value ([7]; inhibitor 15 mg/kg i.v.) was 12.35±1.79 (1.4) ml·ml^−1, the “DV of VPM (2T4K model)” value ([7]; inhibitor 15 mg/kg i.v.) was 12.72±1.83 (1.8) ml·ml^−1 and the “K1 of VPM (2T4K model)” value ([7]; inhibitor 15 mg/kg i.v.) was 1.02±0.02 (15.0) ml·ml^−1·min^−1. For the same compound, the “k2 of VPM (2T4K model)” value ([7]; inhibitor 15 mg/kg i.v.) was 0.43±0.16 (50.3) min^−1, the “k3 of VPM (2T4K model)” value ([7]; inhibitor 15 mg/kg i.v.) was 0.48±0.04 (39.2) min^−1 and the “k4 of VPM (2T4K model)” value ([7]; inhibitor 15 mg/kg i.v.) was 0.12±0.02 (20.4) min^−1. The “DV (Logan) of VPM” value ([7]; inhibitor 30 mg/kg i.v.) was 12.76±0.04 (0.7) ml·ml^−1, the “DV of VPM (2T4K model)” value ([7]; inhibitor 30 mg/kg i.v.) was 13.11±0.22 (2.1) ml·ml^−1 and the “K1 of VPM (2T4K model)” value ([7]; inhibitor 30 mg/kg i.v.) was 1.22±0.23 (11.2) ml·ml^−1·min^−1. For the same compound, the “k2 of VPM (2T4K model)” value ([7]; inhibitor 30 mg/kg i.v.) was 0.30±0.04 (54.6) min^−1, the “k3 of VPM (2T4K model)” value ([7]; inhibitor 30 mg/kg i.v.) was 0.38±0.18 (59.4) min^−1 and the “k4 of VPM (2T4K model)” value ([7]; inhibitor 30 mg/kg i.v.) was 0.17±0.09 (19.8) min^−1. For the same compound, the “Inhibition of MRPs, such as MRP1” value [8] was “do not inhibit” and the “DV increase of VPM following tariquidar” value [9] was “approximately 12 fold”.
